Laboratory results reported in PMC6396489 (Cell Communication and Signaling : CCS, 2019).
“Also recorded” adds a separate entry of the source.

What was measured:
[1] = system: actin cytoskeleton; set-up: method as in PMID 12589050; details: cited from earlier work
[2] = molecular target: T1, Shp1 (Homo sapiens, UniProt P29350); test: Isothermal titration calorimetry, Shp1 WT; format: binding; details: Ins4P 50 µM (Fig. S2)
T1 construct: the C-terminal truncated form of human Shp1 cDNA (His-Shp1; amino acids 1–529); made in house; host or cells: E. coli BL21(DE3)
T1 sequence (P29350 1-529 isoform P29350-3): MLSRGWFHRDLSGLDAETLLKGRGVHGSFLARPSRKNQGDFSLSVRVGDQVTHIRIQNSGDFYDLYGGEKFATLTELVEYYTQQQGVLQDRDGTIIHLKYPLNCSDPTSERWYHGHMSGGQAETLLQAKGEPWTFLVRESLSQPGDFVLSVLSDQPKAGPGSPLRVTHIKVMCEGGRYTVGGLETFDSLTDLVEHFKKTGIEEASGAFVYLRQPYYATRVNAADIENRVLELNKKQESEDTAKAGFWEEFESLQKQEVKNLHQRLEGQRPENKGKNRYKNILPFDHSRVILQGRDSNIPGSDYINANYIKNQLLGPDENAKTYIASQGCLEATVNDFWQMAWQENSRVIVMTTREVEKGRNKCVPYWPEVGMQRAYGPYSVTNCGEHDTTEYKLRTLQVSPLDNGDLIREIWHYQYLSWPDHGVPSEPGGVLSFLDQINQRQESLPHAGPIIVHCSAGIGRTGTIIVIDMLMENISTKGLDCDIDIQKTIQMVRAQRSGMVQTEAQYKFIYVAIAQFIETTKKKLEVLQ
Method: ITC measurements were performed by using a Nano-ITC III (TA instruments, New Castle, DE, USA) with a reaction cell volume of 1 ml kept at 25 °C. A protein solution of 10 μM was titrated into the calorimetric cell with a solution of 50–100 μM of the ligand GroPIns4P (Ins4P) in the syringe. A sequence of 16 injections of 15 μL volume was programmed with a stirring speed of 250 rpm at 500 s intervals. Protein samples were prepared with protein solutions at 25 °C in 20 mM Tris buffer pH 7.4 with 50 mM NaCl and 1 mM TCEP. To minimise the differences in buffer composition and pH between cell and syringe, both ligand and protein solutions were prepared with the same batch of buffer. The heat of dilution of the GroPIns4P into the buffer solution was measured in a separate experiment and appropriate corrections were made. The heat evolved after each ligand injection was obtained from the integral of the calorimetric signal. Raw data were integrated, corrected for non-specific heats and normalized for concentration. The equilibrium dissociation constant (KD), binding enthalpy (ΔbH) and binding stoichiometry (n) were obtained by nonlinear regression of the experimental data using a model of independent binding sites, by means of the NanoAnalyze software. Experiments were performed in duplicate.

[3] = system: NIH3T3 cells; test: Wound-healing assay; format: cell-based; details: for effect on GroPIns4P-stimulated wound closure: 50 μM GroPIns4P
Method: To perform the wound-healing assay, NIH3T3 cells were seeded in 6-well tissue culture plates to a final density of 3 × 10^5 cells/well and maintained at 37 °C and 5% CO2 for 24 h until confluence before being starved overnight in DMEM containing 1% bovine serum. The cell monolayer was wounded by scratching with a 10 μL standard sterile pipette tip. The scratched monolayer was rinsed twice with DMEM containing 1% bovine serum to remove cell debris and incubated with or without 50 μM GroPIns4P. […] In detail, the input image was processed by applying a Sobel edge detector [26], obtaining a gradient image. A threshold process was then performed on the gradient image to obtain the foreground corresponding to the wound area. Particularly, all of the pixels of the gradient image with values less than the threshold θ were assumed to be pixels of the foreground (experimentally, θ is set to 4). Finally, procedures based on morphological operations were used to remove small regions and to fill holes of the wound area to complete detection and analysis.

[4] = system: NIH3T3 cells; test: Immunofluorescence analysis for membrane ruffling; format: cell-based; details: for effect of pre-treatment on peripheral ruffles in response to GroPIns4P: with 50 μM GroPIns4P for 5 min
Method: NIH3T3 and Raw 264.7 cells were cultured in DMEM supplemented with 2 mM L-glutamine, 50 U/mL penicillin, […] streptomycin, and 10% CS or heat-inactivated FBS (30 min at 55 °C), respectively. NIH3T3 cells were transfected with different plasmids using the Lipofectamine LTX/plus reagent according to the manufacturer’s instructions. For immunofluorescence experiments, NIH3T3 cells were seeded onto glass coverslips in 24-well plates at a concentration suitable for 70% confluence without transfection or 50% confluence in the case of Lipofectamine-based cell transfection. In the latter, approximately 24 h after seeding, NIH3T3 cells were transiently transfected with different plasmids with the Lipofectamine LTX/plus reagent following the manufacturer’s instructions. Before treatments, NIH3T3 cells were serum-starved in DMEM with 2 mM glutamine, 50 U/mL penicillin and streptomycin for 16–20 h. The cells were then treated with different stimuli and/or inhibitors, as indicated in the text and/or Figure legends. Addition of exogenous GroPIns4P was at 50 μM (unless otherwise indicated), a concentration eliciting an intracellular concentration of about 1.5 μM, as calculated from the Nernst equation (with T = 300 K, z = − 3, and Veq = − 30 mV, an average value for cultured, non-excitable cells).
For ruffle assessment after treatments, immunofluorescence labelling and morphological analysis of the cells were performed as previously described in a double-blind fashion. In brief, the assessment was based on a null score (zero) for the absence of the feature, followed by a score of one or two according to the level of response of each individual cell, where one indicate that ruffling was confined to one area of the cell (< 25% of the cell circumference), and two indicate that two or more discrete areas of the cell contained ruffles. The cell phenotypes were quantified by counting 150 cells in each sample. The data were then expressed as percentage scores (±SD) for each treatment response compared with its respective control. Scoring of the control cells was performed in the same way to evaluate the presence of the features of interest in untreated cells.

O=P(O)(O)OC1[C@@H](O)[C@@H](O)C(O)[C@H](O)[C@H]1O (stereo partly shown) [Ins4P, Inositol 4-phosphate, reference compound]
effect on actin cytoskeleton organisation [1]: no effect | binding to Shp1 by ITC [2]: did not indicate any specific binding; also recorded: no binding was resolved

O=S(=O)(O)c1ccc2cc(N=Nc3cc(S(=O)(=O)O)c4cccnc4c3O)ccc2c1 [NSC-87877]
reduction of EGF-induced cell migration ([3]; 100 μM, EGF 10 ng/ml): ~100% | effect on GroPIns4P-stimulated wound closure ([3]; pre-treatment 100 μM): completely abrogated | effect of pre-treatment on peripheral ruffles in response to GroPIns4P [4]: strongly impair

O=C1C=CC(=O)C(c2cc(Cl)ccc2Cl)=C1 [TPI-1]
reduction of EGF-induced cell migration ([3]; 25 μM, EGF 10 ng/ml): 50% | effect on GroPIns4P-stimulated wound closure ([3]; pre-treatment 25 μM): completely abrogated | effect of pre-treatment on peripheral ruffles in response to GroPIns4P [4]: strongly impair

CCCCC/C=C\C/C=C\C/C=C\C/C=C\CCCC(=O)O [arachidonic acid]
effect on EGF-induced cell motility ([3]; 10–50 μM): did not affect | effect when combined with the PLA2 inhibitor in EGF-stimulated cells ([3]; EGF 10 ng/ml, cPLA2α inhibitor, arachidonic acid): minor inhibitory effect

EGF: Epidermal growth factor
cell migration ([3]; 10 ng/ml EGF): significant increase

PDGF
effect of Shp1-C455S overexpression on PDGF-induced ruffles ([4]; 10 ng/ml PDGF): not affected | increase in ruffles versus the control ([4]; 10 ng/ml PDGF for 5 min, positive control): 3.5–4 fold
